Literature values as cited in patent US10045993B2, “Pharmaceutical preparation containing entecavir as active ingredient, and preparation method therefor” (CTC BIO, INC., priority 2014, dated 2018).

Details: pH 7.9, 25° C. (room temperature)

moisture solubility: 2400 µg/mL
SMILES: C=C1[C@H](CO)[C@@H](O)C[C@@H]1n1cnc2c(=O)[nH]c(N)nc21 [Entecavir, [1-S-(1α,3α,4β)]-2-amino-1,9-dihydro-9-[4-hydroxy-3-(hydroxymethyl)-2-methylenecyclopentyl]-6H-purin-6-one]
